Experiments:
Assay type in all cases: functional
Settings in all cases: route intraperitoneal
Rattus norvegicus [1] = assay: Antiinflammatory activity in Wister albino rat assessed as inhibition of carrageenan-induced paw edema at 50 mg/kg, ip administered 1 hr before carrageenan challenge measured after 4 hrs by plethysmometer relative to control
Rattus norvegicus [2] = assay: Antiinflammatory activity in Wister albino rat assessed as inhibition of carrageenan-induced paw edema at 50 mg/kg, ip administered 1 hr before carrageenan challenge measured after 4 hrs by plethysmometer relative to indomethacin
Rattus norvegicus [3] = assay: Antiinflammatory activity in Wister albino rat assessed as inhibition of carrageenan-induced paw edema at 50 mg/kg, ip administered 1 hr before carrageenan challenge measured after 3 hrs by plethysmometer relative to control
Rattus norvegicus [4] = assay: Antiinflammatory activity in Wister albino rat assessed as inhibition of carrageenan-induced paw edema at 50 mg/kg, ip administered 1 hr before carrageenan challenge measured after 2 hrs by plethysmometer relative to control
Rattus norvegicus [5] = assay: Antiinflammatory activity in Wister albino rat assessed as inhibition of carrageenan-induced paw edema at 50 mg/kg, ip administered 1 hr before carrageenan challenge measured after 1 hr by plethysmometer relative to control
Rattus norvegicus [6] = assay: Antiinflammatory activity in Wister albino rat assessed as inhibition of carrageenan-induced paw edema at 50 mg/kg, ip administered 1 hr before carrageenan challenge measured after 24 hrs by plethysmometer relative to control
Rattus norvegicus [7] = assay: Antiinflammatory activity in Wister albino rat assessed as inhibition of carrageenan-induced paw edema at 10 mg/kg, ip administered 1 hr before carrageenan challenge measured after 1 hr by plethysmometer relative to control
Rattus norvegicus [8] = assay: Antiinflammatory activity in Wister albino rat assessed as inhibition of carrageenan-induced paw edema at 10 mg/kg, ip administered 1 hr before carrageenan challenge measured after 24 hrs by plethysmometer relative to control
Rattus norvegicus [9] = assay: Antiinflammatory activity in Wister albino rat assessed as inhibition of carrageenan-induced paw edema at 10 mg/kg, ip administered 1 hr before carrageenan challenge measured after 2 hrs by plethysmometer relative to control
Rattus norvegicus [10] = assay: Antiinflammatory activity in Wister albino rat assessed as inhibition of carrageenan-induced paw edema at 10 mg/kg, ip administered 1 hr before carrageenan challenge measured after 4 hrs by plethysmometer relative to control
Rattus norvegicus [11] = assay: Antiinflammatory activity in Wister albino rat assessed as inhibition of carrageenan-induced paw edema at 10 mg/kg, ip administered 1 hr before carrageenan challenge measured after 3 hrs by plethysmometer relative to control

Cn1c([S-])n[n+]2c(N)c(C#N)c(-c3ccc(N4CCOCC4)cc3)c(C#N)c12
inhibition in vivo at 50 mg/kg (Rattus norvegicus [1]): 45.4%

CN1CCN(c2ccc(-c3c(C#N)c(N)[n+]4nc([S-])n(C)c4c3C#N)cc2)CC1
inhibition in vivo at 50 mg/kg (Rattus norvegicus [1]): 36.6%

CCOC(=O)c1c(-c2ccc(F)cc2)cc(-c2ccccc2)nc1Nc1ccccc1
inhibition in vivo at 50 mg/kg (Rattus norvegicus [1]): 76%

C=CCn1c([S-])n[n+]2c(N)c(C#N)c(-c3ccc(N4CCCCC4)cc3)c(C#N)c12
inhibition in vivo at 50 mg/kg (Rattus norvegicus [1]): 68.5%

CCOC(=O)c1c(-c2ccc(Cl)c(Cl)c2)cc(-c2ccccc2)nc1N1CCCCC1
inhibition in vivo at 50 mg/kg (Rattus norvegicus [2]): 95.1% | inhibition in vivo at 50 mg/kg (Rattus norvegicus [3]): 46.3% | inhibition in vivo at 50 mg/kg (Rattus norvegicus [4]): 67.9% | inhibition in vivo at 50 mg/kg (Rattus norvegicus [5]): 53.5% | inhibition in vivo at 50 mg/kg (Rattus norvegicus [6]): 48.9% | inhibition in vivo at 50 mg/kg (Rattus norvegicus [1]): 64.7%

N#Cc1c(-c2ccc(N3CCCCC3)cc2)c(C#N)c2n(Cc3ccccc3)c([S-])n[n+]2c1N
inhibition in vivo at 50 mg/kg (Rattus norvegicus [1]): 67.4%

CCOC(=O)c1c(-c2ccc(C)cc2)cc(-c2ccccc2)nc1N1CCCCC1
inhibition in vivo at 50 mg/kg (Rattus norvegicus [1]): 78%

CCOC(=O)c1c(-c2ccc(Cl)cc2)cc(-c2ccccc2)nc1Nc1ccccc1
inhibition in vivo at 50 mg/kg (Rattus norvegicus [2]): 123% | inhibition in vivo at 50 mg/kg (Rattus norvegicus [3]): 73.7% | inhibition in vivo at 50 mg/kg (Rattus norvegicus [4]): 73.9% | inhibition in vivo at 50 mg/kg (Rattus norvegicus [5]): 62.3% | inhibition in vivo at 50 mg/kg (Rattus norvegicus [6]): 46.5% | inhibition in vivo at 50 mg/kg (Rattus norvegicus [1]): 83.8%

CCOC(=O)c1c(-c2ccc(Cl)c(Cl)c2)cc(-c2ccccc2)nc1N1CCOCC1
inhibition in vivo at 50 mg/kg (Rattus norvegicus [2]): 96.6% | inhibition in vivo at 50 mg/kg (Rattus norvegicus [3]): 67.7% | inhibition in vivo at 50 mg/kg (Rattus norvegicus [4]): 74.3% | inhibition in vivo at 50 mg/kg (Rattus norvegicus [5]): 63.5% | inhibition in vivo at 50 mg/kg (Rattus norvegicus [6]): 61.6% | inhibition in vivo at 50 mg/kg (Rattus norvegicus [1]): 65.7%

CCOC(=O)c1c(-c2ccc(Cl)cc2)cc(-c2ccccc2)nc1Nc1ccc(C)cc1
inhibition in vivo at 50 mg/kg (Rattus norvegicus [2]): 90.9% | inhibition in vivo at 50 mg/kg (Rattus norvegicus [3]): 82.4% | inhibition in vivo at 50 mg/kg (Rattus norvegicus [4]): 32.6% | inhibition in vivo at 50 mg/kg (Rattus norvegicus [5]): 69.5% | inhibition in vivo at 50 mg/kg (Rattus norvegicus [6]): 62.7% | inhibition in vivo at 50 mg/kg (Rattus norvegicus [1]): 61.8%

CCOC(=O)c1c(-c2ccc(Cl)cc2)cc(-c2ccccc2)nc1N1CCOCC1
inhibition in vivo at 50 mg/kg (Rattus norvegicus [2]): 120% | inhibition in vivo at 50 mg/kg (Rattus norvegicus [3]): 69.8% | inhibition in vivo at 50 mg/kg (Rattus norvegicus [4]): 54.5% | inhibition in vivo at 50 mg/kg (Rattus norvegicus [5]): 59.5% | inhibition in vivo at 50 mg/kg (Rattus norvegicus [6]): 61.7% | inhibition in vivo at 50 mg/kg (Rattus norvegicus [1]): 81.3%

CCOC(=O)c1c(-c2ccc(Cl)c(Cl)c2)cc(-c2ccccc2)nc1Nc1ccc(C)cc1
inhibition in vivo at 50 mg/kg (Rattus norvegicus [2]): 87.9% | inhibition in vivo at 50 mg/kg (Rattus norvegicus [3]): 59.3% | inhibition in vivo at 50 mg/kg (Rattus norvegicus [4]): 62.1% | inhibition in vivo at 50 mg/kg (Rattus norvegicus [5]): 59% | inhibition in vivo at 50 mg/kg (Rattus norvegicus [6]): 40.8% | inhibition in vivo at 50 mg/kg (Rattus norvegicus [1]): 59.8%

Cn1c([S-])n[n+]2c(N)c(C#N)c(-c3ccc(N4CCCCC4)cc3)c(C#N)c12
inhibition in vivo at 50 mg/kg (Rattus norvegicus [1]): 51.1%

CCOC(=O)c1c(-c2ccc(Cl)c(Cl)c2)cc(-c2ccccc2)nc1Nc1ccc(Cl)cc1
inhibition in vivo at 50 mg/kg (Rattus norvegicus [2]): 91.8% | inhibition in vivo at 50 mg/kg (Rattus norvegicus [3]): 62.2% | inhibition in vivo at 50 mg/kg (Rattus norvegicus [4]): 61.9% | inhibition in vivo at 50 mg/kg (Rattus norvegicus [5]): 46.2% | inhibition in vivo at 50 mg/kg (Rattus norvegicus [6]): 52.7% | inhibition in vivo at 50 mg/kg (Rattus norvegicus [1]): 62.4%

CCOC(=O)c1c(-c2ccc(C)cc2)cc(-c2ccccc2)nc1Nc1ccc(OC)cc1
inhibition in vivo at 50 mg/kg (Rattus norvegicus [1]): 89.4%

CCOC(=O)c1c(-c2ccc(F)cc2)cc(-c2ccccc2)nc1N1CCOCC1
inhibition in vivo at 50 mg/kg (Rattus norvegicus [1]): 72.7%

CCOC(=O)c1c(-c2ccc(C)cc2)cc(-c2ccccc2)nc1N1CCOCC1
inhibition in vivo at 50 mg/kg (Rattus norvegicus [1]): 73%

C=CCn1c([S-])n[n+]2c(N)c(C#N)c(-c3ccc(N4CCOCC4)cc3)c(C#N)c12
inhibition in vivo at 50 mg/kg (Rattus norvegicus [1]): 60.6%

COc1ccc2c(c1)c(CC(=O)O)c(C)n2C(=O)c1ccc(Cl)cc1 [INDOMETHACIN]
inhibition in vivo at 10 mg/kg (Rattus norvegicus [7]): 62.8% | inhibition in vivo at 50 mg/kg (Rattus norvegicus [2]): 100% | inhibition in vivo at 10 mg/kg (Rattus norvegicus [8]): 76.9% | inhibition in vivo at 10 mg/kg (Rattus norvegicus [9]): 59.9% | inhibition in vivo at 10 mg/kg (Rattus norvegicus [10]): 68% | inhibition in vivo at 10 mg/kg (Rattus norvegicus [11]): 64.8%

CCOC(=O)c1c(-c2ccc(Cl)cc2)cc(-c2ccccc2)nc1N1CCCCC1
inhibition in vivo at 50 mg/kg (Rattus norvegicus [2]): 103% | inhibition in vivo at 50 mg/kg (Rattus norvegicus [3]): 24% | inhibition in vivo at 50 mg/kg (Rattus norvegicus [4]): 29.1% | inhibition in vivo at 50 mg/kg (Rattus norvegicus [5]): 59.3% | inhibition in vivo at 50 mg/kg (Rattus norvegicus [6]): 36.4% | inhibition in vivo at 50 mg/kg (Rattus norvegicus [1]): 70.1%

CCOC(=O)c1c(-c2ccc(Cl)cc2)cc(-c2ccccc2)nc1Nc1ccc(OC)cc1
inhibition in vivo at 50 mg/kg (Rattus norvegicus [2]): 57.2% | inhibition in vivo at 50 mg/kg (Rattus norvegicus [3]): 68.8% | inhibition in vivo at 50 mg/kg (Rattus norvegicus [4]): 61.1% | inhibition in vivo at 50 mg/kg (Rattus norvegicus [5]): 33.3% | inhibition in vivo at 50 mg/kg (Rattus norvegicus [6]): 39.6% | inhibition in vivo at 50 mg/kg (Rattus norvegicus [1]): 38.9%

CCOC(=O)c1c(-c2ccc(Cl)cc2)cc(-c2ccccc2)nc1Nc1ccc(Cl)cc1
inhibition in vivo at 50 mg/kg (Rattus norvegicus [2]): 95.9% | inhibition in vivo at 50 mg/kg (Rattus norvegicus [3]): 31.2% | inhibition in vivo at 50 mg/kg (Rattus norvegicus [4]): 40.6% | inhibition in vivo at 50 mg/kg (Rattus norvegicus [5]): 44.6% | inhibition in vivo at 50 mg/kg (Rattus norvegicus [6]): 32.9% | inhibition in vivo at 50 mg/kg (Rattus norvegicus [1]): 65.2%

CCOC(=O)c1c(-c2ccc(Cl)cc2)cc(-c2ccccc2)nc1N1CCN(C)CC1
inhibition in vivo at 50 mg/kg (Rattus norvegicus [2]): 55.6% | inhibition in vivo at 50 mg/kg (Rattus norvegicus [3]): 67.8% | inhibition in vivo at 50 mg/kg (Rattus norvegicus [4]): 39.6% | inhibition in vivo at 50 mg/kg (Rattus norvegicus [5]): 65.8% | inhibition in vivo at 50 mg/kg (Rattus norvegicus [6]): 53.2% | inhibition in vivo at 50 mg/kg (Rattus norvegicus [1]): 37.8%

CCOC(=O)c1c(-c2ccc(F)cc2)cc(-c2ccccc2)nc1Nc1ccc(Cl)cc1
inhibition in vivo at 50 mg/kg (Rattus norvegicus [1]): 78.4%

N#Cc1c(-c2ccc(N3CCOCC3)cc2)c(C#N)c2n(Cc3ccccc3)c([S-])n[n+]2c1N
inhibition in vivo at 50 mg/kg (Rattus norvegicus [1]): 39.3%

CCOC(=O)c1c(-c2ccc(F)cc2)cc(-c2ccccc2)nc1N1CCCCC1
inhibition in vivo at 50 mg/kg (Rattus norvegicus [1]): 76%

CCOC(=O)c1c(-c2ccc(C)cc2)cc(-c2ccccc2)nc1Nc1ccc(Cl)cc1
inhibition in vivo at 50 mg/kg (Rattus norvegicus [1]): 79.4%

— ChEMBL document CHEMBL1949547, “Computer-assisted rational design, synthesis, and bioassay of non-steroidal anti-inflammatory agents” (2012)
